These molecules were tested against T1, vanilloid receptor 1 (VR1/TRPV1 receptor) (Homo sapiens, UniProt Q8NER1) (assay: Functional testing on the vanilloid receptor 1 (FLIPR Ca2+ influx assay, capsaicin)). Conditions: @5 μM; Cap=capsaicin; read-out: inhibition (as a percentage), (f) (human being) Cap.
T1 construct: expressed in transfected cells; host or cells: CHO K1
Format: cell-based, human being
Outline: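 Ca2+ influx was read with Fluo-4 on a FLIPR against 100 nM capsaicin, in CHO K1 cells transfected with human VR1. The detailed protocol describes rat dorsal root ganglion neurons cultured 2–3 days on laminin/poly-D-lysine plates in medium with 25 ng/mL NGF.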

T1 sequence (Q8NER1 whole entry): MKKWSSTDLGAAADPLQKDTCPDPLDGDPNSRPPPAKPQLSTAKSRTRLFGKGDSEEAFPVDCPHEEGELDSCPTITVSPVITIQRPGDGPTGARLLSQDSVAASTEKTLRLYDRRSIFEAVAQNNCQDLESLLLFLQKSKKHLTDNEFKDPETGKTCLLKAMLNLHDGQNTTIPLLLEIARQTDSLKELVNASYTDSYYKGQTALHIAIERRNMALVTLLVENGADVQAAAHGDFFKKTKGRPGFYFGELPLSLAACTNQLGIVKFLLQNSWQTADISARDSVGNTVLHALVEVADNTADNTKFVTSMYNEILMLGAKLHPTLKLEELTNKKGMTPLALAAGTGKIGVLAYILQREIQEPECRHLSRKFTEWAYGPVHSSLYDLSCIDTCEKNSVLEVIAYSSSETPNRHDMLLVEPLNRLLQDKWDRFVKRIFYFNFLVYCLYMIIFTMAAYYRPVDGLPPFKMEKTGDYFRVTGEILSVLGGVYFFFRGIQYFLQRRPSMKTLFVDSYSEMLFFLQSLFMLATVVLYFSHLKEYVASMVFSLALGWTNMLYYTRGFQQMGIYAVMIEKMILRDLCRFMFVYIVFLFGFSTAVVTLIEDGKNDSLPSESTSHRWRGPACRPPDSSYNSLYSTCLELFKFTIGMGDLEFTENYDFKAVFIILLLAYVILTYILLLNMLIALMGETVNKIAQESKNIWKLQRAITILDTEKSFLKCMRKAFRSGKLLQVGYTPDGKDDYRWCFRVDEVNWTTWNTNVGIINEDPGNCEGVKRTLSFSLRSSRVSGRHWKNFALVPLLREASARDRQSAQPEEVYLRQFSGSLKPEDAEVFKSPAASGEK

inhibition at 5 µM | SMILES
24% | Cc1ccc2cccc(NC(=O)NCc3ccc(C(C)(C)C)cc3N3CCC(C)CC3)c2n1 [Example 74, 1-(4-Tert-butyl-2-(4-methylpiperidin-1-yl)benzyl)-3-(2-methylquinolin-8-yl)urea]
47% | CC(=O)Nc1nc2ccc(NC(=O)NCc3ccc(C(F)(F)F)nc3N3CCC(C)CC3)cc2s1 [Example 35, N-(6-(3-((2-(4-Methylpiperidin-1-yl)-6-(trifluoromethyl)pyridin-3-yl)methyl)ureido)benzo[d]thiazol-2-yl)acetamide]
22% | CC1CCN(c2nc(C(F)(F)F)ccc2CNC(=O)Nc2ccnc3[nH]ncc23)CC1 [Example 9, 1-((2-(4-Methylpiperidin-1-yl)-6-(trifluoromethyl)pyridin-3-yl)methyl)-3-(1H-pyrazolo[3,4-b]pyridin-4-yl)urea]

Same assay, conditions: Cap=capsaicin (100 nM); Ki from IC50 by Cheng-Prusoff equation; read-out: (f) Ki (human being) [nM] Cap

Ki | SMILES
1 nM | CC1CCN(c2nc(C(C)(C)C)ccc2CNC(=O)Nc2cccc3ncccc23)CC1 [Example 64, 1-((6-Tert-butyl-2-(4-methylpiperidin-1-yl)pyridin-3-yl)methyl)-3-(quinolin-5-yl)urea]
13 nM | CC(=O)n1ncc2c(NC(=O)NCc3ccc(C(F)(F)F)nc3N3CCC(C)CC3)cccc21 [Example 49, 1-(1-Acetyl-1H-indazol-4-yl)-3-((2-(4-methylpiperidin-1-yl)-6-(trifluoromethyl)pyridin-3-yl)methyl)urea]
4 nM | CC1CCN(c2nc(C(F)(F)F)ccc2CNC(=O)Nc2ccc3ncsc3c2)CC1 [Example 32, 1-(Benzo[d]thiazol-6-yl)-3-((2-(4-methylpiperidin-1-yl)-6-(trifluoromethyl)pyridin-3-yl)methyl)urea]
0.7 nM | CC1CCN(c2cc(C(F)(F)F)ccc2CNC(=O)Nc2cccc3ncccc23)CC1 [Example 63, 1-(2-(4-Methylpiperidin-1-yl)-4-(trifluoromethyl)benzyl)-3-(quinolin-5-yl)urea]
1 nM | COc1nc(Cl)cc2c(NC(=O)NCc3ccc(C(F)(F)F)nc3N3CCC(C)CC3)cccc12 [Example 82, 1-(3-Chloro-1-methoxyisoquinolin-5-yl)-3-((2-(4-methylpiperidin-1-yl)-6-(trifluoromethyl)pyridin-3-yl)methyl)urea]
18 nM | CC1CCN(c2nc(C(F)(F)F)ccc2CNC(=O)Nc2cccc3scnc23)CC1 [Example 59, 1-(Benzo[d]thiazol-4-yl)-3-((2-(4-methylpiperidin-1-yl)-6-(trifluoromethyl)pyridin-3-yl)methyl)urea]
8 nM | CC1CCN(c2nc(C(F)(F)F)ccc2CNC(=O)Nc2ccc3ccncc3c2)CC1 [Example 84, 1-(Isoquinolin-7-yl)-3-((2-(4-methylpiperidin-1-yl)-6-(trifluoromethyl)pyridin-3-yl)methyl)urea]
1 nM | CC1CCN(c2cc(C(C)(C)C)ccc2CNC(=O)Nc2cccc3ncccc23)CC1 [Example 62, 1-(4-Tert-butyl-2-(4-methylpiperidin-1-yl)benzyl)-3-(quinolin-5-yl)urea]
0.1 nM | CC1CCN(c2nc(C(C)(C)C)ccc2CNC(=O)Nc2cccc3cnccc23)CC1 [Example 76, 1-((6-Tert-butyl-2-(4-methylpiperidin-1-yl)pyridin-3-yl)methyl)-3-(isoquinolin-5-yl)urea]
3 nM | CC1CCN(c2nc(C(F)(F)F)ccc2CNC(=O)Nc2c(Cl)ccc3[nH]ncc23)CC1 [Example 57, 1-(5-Chloro-1H-indazol-4-yl)-3-((2-(4-methylpiperidin-1-yl)-6-(trifluoromethyl)pyridin-3-yl)methyl)urea]
62 nM | COc1ccc(NC(=O)NCc2ccc(C(F)(F)F)nc2N2CCC(C)CC2)c2cnccc12 [Example 88, 1-(5-Methoxyisoquinolin-8-yl)-3-((2-(4-methylpiperidin-1-yl)-6-(trifluoromethyl)pyridin-3-yl)methyl)urea]
5 nM | CC1CCN(c2nc(C(F)(F)F)ccc2CNC(=O)Nc2cccc3c2ccn3C)CC1 [Example 40, 1-(1-Methyl-1H-indol-4-yl)-3-((2-(4-methylpiperidin-1-yl)-6-(trifluoromethyl)pyridin-3-yl)methyl)urea]
8 nM | CC(=O)n1ccc2c(NC(=O)NCc3ccc(C(F)(F)F)nc3N3CCC(C)CC3)cccc21 [Example 41, 1-(1-Acetyl-1H-indol-4-yl)-3-((2-(4-methylpiperidin-1-yl)-6-(trifluoromethyl)pyridin-3-yl)methyl)urea]
24 nM | Cc1ccc2cccc(NC(=O)NCc3ccc(C(F)(F)F)nc3N3CCC(C)CC3)c2n1 [Example 73, 1-((2-(4-Methylpiperidin-1-yl)-6-(trifluoromethyl)pyridin-3-yl)methyl)-3-(2-methylquinolin-8-yl)urea]
9 nM | CC1CCN(c2nc(C(F)(F)F)ccc2CNC(=O)Nc2cnc3ccccc3c2)CC1 [Example 12, 1-((2-(4-Methylpiperidin-1-yl)-6-(trifluoromethyl)pyridin-3-yl)methyl)-3-(quinolin-3-yl)urea]
24 nM | CC1CCN(c2nc(C(F)(F)F)ccc2CNC(=O)Nc2ccc3cc[nH]c3c2)CC1 [Example 22, 1-(1H-Indol-6-yl)-3-((2-(4-methylpiperidin-1-yl)-6-(trifluoromethyl)pyridin-3-yl)methyl)urea]

Reference: patent US9029378B2, “Substituted bicyclic aromatic carboxamide and urea compounds as vanilloid receptor ligands” (Gruenenthal GmbH, priority 2011, dated 2015)
